Measured values from patent publication US8440800B2, “Compositions for reducing cell adhesion to bubbles” (The Ohio State University Research Foundation, priority 2006, dated 2013).
Like-named read-outs stand apart in the source and are kept apart here.

Experiments:
[1] = CMC and static surface tension, maximum bubble pressure method; type: physicochemical; details: for CMC: 37° C., CD CHO-A medium; for CMC SURFACE TENSION: cell culture medium at 37° C.
Method: (§1) The CMC depends on temperature and solution components. Given the significant number of components in typical cell culture media, the CMC of the comparative materials and the protective compositions were determined at 37° C. and in CD CHO-A medium using a SensaDyne bubble tensiometer PC500L (Chem-Dyne Research Corporation, Mesa, Ariz.), which uses the maximum bubble pressure method. The time between initial bubble formation and attainment of maximum bubble pressure, “surface age”, can be varied by changing the gas flow rate. When the static surface tensions were measured, the surface age were adjusted to approximate 1 s, which was enough for small molecule surfactants to migrate to the bubble surface and potentially reach equilibrium. When the dynamic surface tensions were measured, the surface age was varied in the range of about 0.1 to about 3.0 seconds.

[2] = test system: Chinese Hamster Ovary cells (CHO) cell line K1; test: Fluorescent cytotoxicity screening, 96-well plates, calcein AM; type: cell-based
Method: (§2) Chinese Hamster Ovary cells (CHO) cell line K1 (ATCC CCL-61) were used. The cells were initially cultured in Ham F-12 culture medium supplemented with 10% v/v fetal bovine serum (Sigma Aldrich Co., St. Louis, Mo.) in T-75 flasks. Then the cells were gradually adapted to chemically-defined medium (CD CHO-A, Invitrogen, Carlsbad, Calif.), which contain no PF-68. The cells were subcultured every 3-4 days and maintained at 37° C. incubator with 5% CO2. All the cultures were anchorage-dependent.
The materials were compared at the same concentration relative to the specific surfactants critical micelle concentration, CMC, i.e., 0.01 CMC or 0.1 CMC. In order to minimize the effect of potential adsorption during filter sterilization, the concentrated material solutions were applied, and then diluted to desired concentration at time of use.
Black, clear-bottom 96-well plates (Fisher Scientific, Hampton, N.H.) were used in the screening experiments. In each well, 150 μl cell suspensions with a total cell number of approximately 10^4 were inoculated along with the test materials and subsequently cultured in a 37° C. incubator with 5% CO2. After 48 hours, the supernatant was carefully removed while the attached CHO cells remained at the bottom of the well. 100 μl of 4 μM calcein AM solution (Invitrogen, Carlsbad, Calif.), a fluorescence probe, was added to each well and incubated for one hour at 37° C. in order to quickly assess cell growth (Yang et al., 2002). Calcein AM is an esterase substrate which can be converted into a polar, fluorescent product by an intracellular enzyme. The fluorescence density was read by a Cytofluor 4000 (Applied Biosystems, Foster City, Calif.). Six replications were performed for each condition (type of material and concentration) and the positions on the 96 well plates were randomized. A reasonable linear relationship between cell number (less than 5×10^5 per well) and fluorescence density was confirmed before screening experiments; however, a control was created with each specific experiment.

[3] = test system: Chinese Hamster Ovary cells (CHO) cell line K1; test: Cytotoxicity studies in T25 flasks (cell growth); type: cell-based; details: T-25 flasks, 48 hours; concentrations of FIG. 6
Method: as §2
Various candidate materials from the 96 well plate assays were further investigated using T25 flasks. The concentration of the candidate materials were tested at discrete concentration, which depended on the specific material, but at the highest concentration exceeded 0.1 CMC. In all cases, tested, a concentration at which cell growth began to be inhibited was detected.
Additional protective compositions, Nonyl maltopyranoside (NM) and CYMAL®-4 (CM4), were purchased from Anatace Inc. (Maumee, Ohio). The inoculation was 3.0×10^5 cells/ml. After 48 hours, the cells were harvested by Accutase® (Innovative Cell Technologies Inc., San Diego, Calif.) and counted by a hemocytometer. Besides cell growth, the morphology of cells was also monitored by an inverted microscope (Nikon Ecllipse TE2000-U, Melville, N.Y.).

[4] = Dynamic surface tension in cell culture medium; type: physicochemical; details: 0.28 g/L
Method: as §1

CHO K1 cells = test: Bubble-cell interactions, cell enrichment factor in foam (bubble collector, LDH); type: cell-based, Chinese Hamster
Method: An improved bubble collector device described by Ma et al. (2004) was used to quantitatively study cell entrapment in the foam. Specifically, this device can isolate bubble rupture events from foam formation vessel as well as maintain a plug-flow of bubbles from the foam layer into the bubble collection tube.
The cell concentration was determined using the lactate dehydrogenase (LDH) assay (CytoTox 96, Promega, Madison, Wis.). 9% (w/v) Triton X-100 solution was added to the cell suspension to be evaluated at a ratio of 1 to 10, and subsequently incubated at 37° C. for 45 minutes in order to lyse all the cells. A standard curve between LDH absorption and cell concentration by hemocytometer measurement was made for each set of experiments. The foam liquid volume was also measured by weighing the collect tube before and after experiments, assuming a liquid density of 1.0 g/ml.
For the bubble column studies, CHO K1 cells, grown in CD-CHO medium, were harvested during exponential phase of growth in spinner flasks. […]
Two spargers, a 22 gauge needle and a sintered glass (ACE glass, Vineland, N.J.) provided bubbles which produced, as expected, two different bubble sizes. The bubbles sizes were determined using a SCIMAX CCD digital camera (MVIA, Monaca, Pa.) and an infinity lens (ISCO Precision Optics GMBH, Germany) in a glass square column. […]

[5] = Bubble size for two spargers (CCD camera); type: physicochemical
Method: Two spargers, a 22 gauge needle and a sintered glass (ACE glass, Vineland, N.J.) provided bubbles which produced, as expected, two different bubble sizes. The bubbles sizes were determined using a SCIMAX CCD digital camera (MVIA, Monaca, Pa.) and an infinity lens (ISCO Precision Optics GMBH, Germany) in a glass square column. The cell enrichment factor can be defined as the ratio of total LDH concentration in the foam liquid to that in the bulk liquid after lysing all the cells.
Consistent with the techniques used by Ma et al. (2004), the effectiveness of the protective compositions with respect to cell-bubble interactions was evaluated using the bubble collection device. Prior to the studies with cells, the size of the bubbles generated using a sintered glass sparger and a 22 gauge needle and two different concentrations of the PF-68® comparative material and the protective composition NM were determined.

red blood cells = details: cited from earlier work

Row | SMILES | CMC [1] [mM] | HEAD GROUP SIZE [1] [Å^2] | CMC SURFACE TENSION [1] [DYN/CM] | also measured
1 | OC[C@H]1O[C@H](O[C@H]2[C@H](O)[C@@H](O)[C@H](OCCCCC3CCCCC3)O[C@@H]2CO)[C@H](O)[C@@H](O)[C@@H]1O [CM4, 4-Cyclohexyl-1-butyl-β-D-maltoside] | 7.6 |  |  | 
2 | CCCCCCCCCCCCCCCC[N+](C)(C)C.[Br-] [CTAB, Hexadecyltrimethyl ammonium bromide] | 1.3 |  |  | Cytotoxicity (inhibition of cell growth, fluorescence intensity) [2]: most toxic to cells; Microscopic observation of cells [2]: completely lysed the cells
3 | CCCCCCCCCCCC[N+](C)(C)[O-] [DDAO, N,N-Dimethyldodecyl amine N-oxide] | 2.0 |  |  | 
4 | CCCCCCCCCC[N+](C)(C)[O-] [DDeAO, N,N-Dimethyldecyl amine N-oxide] | 6.4 |  |  | 
5 | CCCCCCCCCCO[C@@H]1O[C@H](CO)[C@@H](O)[C@H](O)[C@H]1O [DG, n-Decyl-β-D-glucopyranoside] | 2.3 | 32 | 31.5 | Toxicity relative to maltose head group analogue of same alkyl chain length [2]: more toxic
6 | CCCCCCCCCCO[C@@H]1O[C@H](CO)[C@@H](O[C@H]2O[C@H](CO)[C@@H](O)[C@H](O)[C@H]2O)[C@H](O)[C@H]1O [DM, n-Decyl-β-D-maltopyranoside] | 1.8 | 42 | 38.9 | Maximum concentration before inhibitory effects on cell growth was observed [3]: 0.28 g/L; Time to achieve equilibrium surface tension [4]: approximately 0.5 second; Effect on decrease of the enrichment factor (CHO K1 cells; 0.28 g/L): less than PF-68® comparative material and the protective composition NM
7 | CCCCCCCCCCCC[N+](C)(C)C.[Br-] [DTAB, Dodecyltrimethyl ammonium bromide] | 7.0 |  |  | Cytotoxicity (inhibition of cell growth, fluorescence intensity) ([2]; 0.01 CMC and 0.1 CMC, 48 hours): most toxic to cells; Microscopic observation of cells ([2]; at the lowest concentration): completely lysed the cells
8 | CCCCCCCCCO[C@@H]1O[C@H](CO)[C@@H](O[C@H]2O[C@H](CO)[C@@H](O)[C@H](O)[C@H]2O)[C@H](O)[C@H]1O [NM, n-Nonyl-β-D-maltopyranoside] | 6 | 59 | 40.1 | Maximum concentration before inhibitory effects on cell growth was observed [3]: 1.0 g/L; Median Diameter of bubbles ([5]; 22 gauge needle (large bubble), 0.6 g/L): 2.7 mm; Median Diameter of bubbles ([5]; 22 gauge needle (large bubble), 1.0 g/L): 2.5 mm; Median Diameter of bubbles ([5]; sintered glass sparger (microbubble), 0.6 g/L): 159 μm; Median Diameter of bubbles ([5]; sintered glass sparger (microbubble), 1.0 g/L): 157 μm; Effect on cell enrichment factor (CHO K1 cells; 1.0 g/L): slightly decreases the enrichments factor further
9 | CCCCCCCCO[C@@H]1O[C@H](CO)[C@@H](O)[C@H](O)[C@H]1O [OG, n-Octyl-β-D-glucopyranoside] | 27.1 | 40 | 32.5 | Toxicity relative to maltose head group analogue of same alkyl chain length [2]: more toxic
10 | CCCCCCCCO[C@@H]1O[C@H](CO)[C@@H](O[C@H]2O[C@H](CO)[C@@H](O)[C@H](O)[C@H]2O)[C@H](O)[C@H]1O [OM, n-Octyl-β-D-maltopyranoside] | 24.5 | 61 | 41.5 | Maximum concentration before inhibitory effects on cell growth was observed [3]: 3.5 g/L; Toxicity to red blood cells (red blood cells): less toxic to red blood cells than the OG comparative material
11 | CCCCCCCCS[C@@H]1O[C@H](CO)[C@@H](O)[C@H](O)[C@H]1O [OT, n-Octyl-β-D-thioglucopyranoside] | 11.0 |  |  | 
12 | CCCCCCCCCCCCOS(=O)(=O)[O-].[Na+] [SDS, Sodium dodecyl sulfate] | 2.3 |  |  | Cytotoxicity (inhibition of cell growth, fluorescence intensity) ([2]; 0.01 CMC and 0.1 CMC, 48 hours): inhibitory
13 | CCCCCCCCCCOS(=O)(=O)[O-].[Na+] [SDeS, Sodium decyl sulfate] | 12.2 |  |  | 
14 | CCCCCCCCOS(=O)(=O)[O-].[Na+] [SOS, Sodium octyl sulfate] | 85.6 |  |  | 
